Results as given in PMC5529658, “Antiproliferative and Antibacterial Activities of Cirsium scabrum from Tunisia” (Evidence-based Complementary and Alternative Medicine : eCAM, 2017).
Values belong to the compound of their own block, whether it stands above or below them.

Tests used:
[1] = system: several cultured human cancer cell lines; conditions: cited from earlier work
[2] = system: Corynebacterium striatum T40A3; assay: Antimicrobial assay (MIC, agar dilution); format: cell-based
Protocol: (§1) The antimicrobial activity of crude extract and partitions was evaluated against 36 pathogenic microorganisms (22 Gram-positive bacteria, 13 Gram-negative bacteria, and 1 yeast) according to Mahamodo et al.. The 36 microorganisms were grown overnight at 37°C on sloping Mueller-Hinton (MH) agar medium. Briefly, the bacteria were diluted with Ringer's Cysteine (RC) solution to obtain 10^6 bacteria/ml. […] Inocula of 10^4 colony forming units (CFU) were spotted ultimately with a multipoint inoculator (Steers Replicator).

[3] = system: Corynebacterium striatum T46C1; assay: Antimicrobial assay (MIC, agar dilution); format: cell-based
Protocol: as §1

[4] = system: Dermabacter hominis T47A7; assay: Antimicrobial assay (MIC, agar dilution); format: cell-based
Protocol: as §1

[5] = system: Dermabacter hominis T49B5; assay: Antimicrobial assay (MIC, agar dilution); format: cell-based
Protocol: as §1

[6] = system: Enterococcus faecalis T37B1; assay: Antimicrobial assay (MIC, agar dilution); format: cell-based
Protocol: as §1

[7] = system: Enterococcus faecalis T47A16; assay: Antimicrobial assay (MIC, agar dilution); format: cell-based
Protocol: as §1

[8] = system: Escherichia coli T20A2; assay: Antimicrobial assay (MIC, agar dilution); format: cell-based
Protocol: as §1

[9] = system: Pseudomonas aeruginosa ATCC9027; assay: Antimicrobial assay (MIC, agar dilution); format: cell-based
Protocol: as §1

[10] = system: Pseudomonas aeruginosa T41; assay: Antimicrobial assay (MIC, agar dilution); format: cell-based
Protocol: as §1

[11] = system: Staphylococcus aureus 8142; assay: Antimicrobial assay (MIC, agar dilution); format: cell-based
Protocol: as §1

[12] = system: Staphylococcus aureus 8143; assay: Antimicrobial assay (MIC, agar dilution); format: cell-based
Protocol: as §1

[13] = system: Staphylococcus aureus 8148; assay: Antimicrobial assay (MIC, agar dilution); format: cell-based
Protocol: as §1

[14] = system: Staphylococcus aureus T11; assay: Antimicrobial assay (MIC, agar dilution); format: cell-based
Protocol: as §1

[15] = system: Staphylococcus aureus T21; assay: Antimicrobial assay (MIC, agar dilution); format: cell-based
Protocol: as §1

[16] = system: Staphylococcus aureus T2510; assay: Antimicrobial assay (MIC, agar dilution); format: cell-based
Protocol: as §1

[17] = system: Staphylococcus aureus T26A4; assay: Antimicrobial assay (MIC, agar dilution); format: cell-based
Protocol: as §1

[18] = system: Staphylococcus aureus T281; assay: Antimicrobial assay (MIC, agar dilution); format: cell-based
Protocol: as §1

[19] = system: Staphylococcus aureus T306; assay: Antimicrobial assay (MIC, agar dilution); format: cell-based
Protocol: as §1

[20] = system: Staphylococcus aureus T61; assay: Antimicrobial assay (MIC, agar dilution); format: cell-based
Protocol: as §1

[21] = system: Staphylococcus capitis T21A3; assay: Antimicrobial assay (MIC, agar dilution); format: cell-based
Protocol: as §1

[22] = system: Staphylococcus capitis T29A2; assay: Antimicrobial assay (MIC, agar dilution); format: cell-based
Protocol: as §1

[23] = system: Staphylococcus epidermidis T151; assay: Antimicrobial assay (MIC, agar dilution); format: cell-based
Protocol: as §1

[24] = system: Staphylococcus epidermidis T19A1; assay: Antimicrobial assay (MIC, agar dilution); format: cell-based
Protocol: as §1

[25] = system: Staphylococcus lugdunensis T36A1; assay: Antimicrobial assay (MIC, agar dilution); format: cell-based
Protocol: as §1

[26] = system: Staphylococcus lugdunensis T47B2; assay: Antimicrobial assay (MIC, agar dilution); format: cell-based
Protocol: as §1

[27] = system: Staphylococcus pettenkoferi T282; assay: Antimicrobial assay (MIC, agar dilution); format: cell-based
Protocol: as §1

[28] = system: Staphylococcus pettenkoferi T33; assay: Antimicrobial assay (MIC, agar dilution); format: cell-based
Protocol: as §1

[29] = system: Staphylococcus saprophyticus 8237; assay: Antimicrobial assay (MIC, agar dilution); format: cell-based
Protocol: as §1

[30] = system: Streptococcus agalactiae T53A4; assay: Antimicrobial assay (MIC, agar dilution); format: cell-based; conditions: vancomycin
Protocol: as §1

SMILES: C[C@H](C/C=C/C(C)(C)OO)[C@H]1CC[C@@]2(C)[C@@H]3CC[C@H]4C(C)(C)[C@@H](O)CC[C@@]45C[C@@]35CC[C@]12C [Compound 3a, 25-hydroperoxycycloart-23-en-3β-ol]
cytotoxic activity [1]: significant cytotoxic activity

SMILES: C=C(C)C(CC[C@@H](C)[C@H]1CC[C@@]2(C)[C@@H]3CC[C@H]4C(C)(C)[C@@H](O)CC[C@@]45C[C@@]35CC[C@]12C)OO (stereo partly drawn) [Compound 3b, 24-hydroperoxycycloart-25-en-3β-ol]
cytotoxic activity [1]: significant cytotoxic activity

Reference antibiotics MIC values ([2]; gentamicin): R (R: >8)
Reference antibiotics MIC values ([3]; gentamicin): S (Gent (gentamicin), S: ≤4)
Reference antibiotics MIC values ([4]; gentamicin): S (Gent (gentamicin), S: ≤4)
Reference antibiotics MIC values ([5]; gentamicin): S (Gent (gentamicin), S: ≤4)
Reference antibiotics MIC values ([6]; gentamicin): S (Gent (gentamicin), S: ≤4)
Reference antibiotics MIC values ([7]; gentamicin): S (Gent (gentamicin), S: ≤4)
Reference antibiotics MIC values ([8]; gentamicin): R (R: >8)
Reference antibiotics MIC values ([9]; gentamicin): S (Gent (gentamicin), S: ≤4)
Reference antibiotics MIC values ([10]; gentamicin): S (Gent (gentamicin), S: ≤4)
Reference antibiotics MIC values ([11]; gentamicin): S (Gent (gentamicin), S: ≤4)
Reference antibiotics MIC values ([12]; gentamicin): S (Gent (gentamicin), S: ≤4)
Reference antibiotics MIC values ([13]; gentamicin): S (Gent (gentamicin), S: ≤4)
Reference antibiotics MIC values ([14]; gentamicin): S (Gent (gentamicin), S: ≤4)
Reference antibiotics MIC values ([15]; gentamicin): S (Gent (gentamicin), S: ≤4)
Reference antibiotics MIC values ([16]; gentamicin): S (Gent (gentamicin), S: ≤4)
Reference antibiotics MIC values ([17]; gentamicin): S (Gent (gentamicin), S: ≤4)
Reference antibiotics MIC values ([18]; gentamicin): S (Gent (gentamicin), S: ≤4)
Reference antibiotics MIC values ([19]; gentamicin): S (Gent (gentamicin), S: ≤4)
Reference antibiotics MIC values ([20]; gentamicin): S (Gent (gentamicin), S: ≤4)
Reference antibiotics MIC values ([21]; gentamicin): S (Gent (gentamicin), S: ≤4)
Reference antibiotics MIC values ([22]; gentamicin): S (Gent (gentamicin), S: ≤4)
Reference antibiotics MIC values ([23]; gentamicin): R (R: >8)
Reference antibiotics MIC values ([24]; gentamicin): S (Gent (gentamicin), S: ≤4)
Reference antibiotics MIC values ([25]; gentamicin): S (Gent (gentamicin), S: ≤4)
Reference antibiotics MIC values ([26]; gentamicin): S (Gent (gentamicin), S: ≤4)
Reference antibiotics MIC values ([27]; gentamicin): S (Gent (gentamicin), S: ≤4)
Reference antibiotics MIC values ([28]; gentamicin): S (Gent (gentamicin), S: ≤4)
Reference antibiotics MIC values ([29]; gentamicin): S (Gent (gentamicin), S: ≤4)
SMILES: CNC(C)C1CCC(N)C(OC2C(N)CC(N)C(OC3OCC(C)(O)C(NC)C3O)C2O)O1 (centres unmarked) [Gent, gentamicin]

SMILES: CN[C@H](CC(C)C)C(=O)N[C@H]1C(=O)N[C@@H](CC(N)=O)C(=O)N[C@H]2C(=O)N[C@H]3C(=O)N[C@H](C(=O)N[C@H](C(=O)O)c4cc(O)cc(O)c4-c4cc3ccc4O)[C@H](O)c3ccc(c(Cl)c3)Oc3cc2cc(c3O[C@@H]2O[C@H](CO)[C@@H](O)[C@H](O)[C@H]2O[C@H]2C[C@](C)(N)[C@H](O)[C@H](C)O2)Oc2ccc(cc2Cl)[C@H]1O [Vanc, vancomycin]
Reference antibiotics MIC values ([2]; vancomycin): S (Vanc (vancomycin), S: ≤4)
Reference antibiotics MIC values ([3]; vancomycin): S (Vanc (vancomycin), S: ≤4)
Reference antibiotics MIC values ([4]; vancomycin): S (Vanc (vancomycin), S: ≤4)
Reference antibiotics MIC values ([5]; vancomycin): S (Vanc (vancomycin), S: ≤4)
Reference antibiotics MIC values ([6]; vancomycin): S (Vanc (vancomycin), S: ≤4)
Reference antibiotics MIC values ([7]; vancomycin): S (Vanc (vancomycin), S: ≤4)
Reference antibiotics MIC values ([8]; vancomycin): R (R: >16)
Reference antibiotics MIC values ([9]; vancomycin): R (R: >16)
Reference antibiotics MIC values ([10]; vancomycin): R (R: >16)
Reference antibiotics MIC values ([11]; vancomycin): S (Vanc (vancomycin), S: ≤4)
Reference antibiotics MIC values ([12]; vancomycin): S (Vanc (vancomycin), S: ≤4)
Reference antibiotics MIC values ([13]; vancomycin): S (Vanc (vancomycin), S: ≤4)
Reference antibiotics MIC values ([14]; vancomycin): S (Vanc (vancomycin), S: ≤4)
Reference antibiotics MIC values ([15]; vancomycin): S (Vanc (vancomycin), S: ≤4)
Reference antibiotics MIC values ([16]; vancomycin): S (Vanc (vancomycin), S: ≤4)
Reference antibiotics MIC values ([17]; vancomycin): S (Vanc (vancomycin), S: ≤4)
Reference antibiotics MIC values ([18]; vancomycin): S (Vanc (vancomycin), S: ≤4)
Reference antibiotics MIC values ([19]; vancomycin): S (Vanc (vancomycin), S: ≤4)
Reference antibiotics MIC values ([20]; vancomycin): S (Vanc (vancomycin), S: ≤4)
Reference antibiotics MIC values ([21]; vancomycin): S (Vanc (vancomycin), S: ≤4)
Reference antibiotics MIC values ([22]; vancomycin): S (Vanc (vancomycin), S: ≤4)
Reference antibiotics MIC values ([23]; vancomycin): S (Vanc (vancomycin), S: ≤4)
Reference antibiotics MIC values ([24]; vancomycin): R (R: >16)
Reference antibiotics MIC values ([25]; vancomycin): S (Vanc (vancomycin), S: ≤4)
Reference antibiotics MIC values ([26]; vancomycin): S (Vanc (vancomycin), S: ≤4)
Reference antibiotics MIC values ([27]; vancomycin): S (Vanc (vancomycin), S: ≤4)
Reference antibiotics MIC values ([28]; vancomycin): S (Vanc (vancomycin), S: ≤4)
Reference antibiotics MIC values ([29]; vancomycin): S (Vanc (vancomycin), S: ≤4)
Reference antibiotics MIC values [30]: R (R: >16)
